Read-outs that look alike come from different tables or passages of the source. Some results are limits rather than exact numbers.

Consider 8 compounds from US5030628A, “N-aryl-azetidinones, their preparation process and their use as elastase inhibitors” (Scientifique, priority 1988, dated 1991).

In series [1] the test system is elastase. Put plainly: Properties with respect to elastase (substrate or inhibitor). The format is biochemical. The text has this: Thus, the nature of the R^3 substituent has a significant influence on the properties of the product obtained.
The target in series [2] is porcine pancreatic elastase (PPE) (Sus scrofa, UniProt P00772). Put plainly: Deactivation of porcine pancreatic elastase (PPE), Kitz and Wilson / Hart and O'Brian kinetics. The class given is biochemical. As to conditions: for Ki / kinact / kinact/KI: 37° C., pH 8, 0.1M tris buffer; for Ki / kinact: Kitz and Wilson (5a, 5c, 5e, 10a), Hart and O'Brian (5a, 5'a); for Ki: read-out: Ki (dissociation constant of the enzyme-inhibitor complex), PPE; for kinact: read-out: ki (first order constant for the formation of the deactivated enzyme), PPE; for kinact/KI: read-out: ki/Ki (apparent second order constant characterizing the deactivation), PPE. Here is the method: (§1) All the kinetic measurements are carried out at 37° C. and at a pH of 8 with a 0.1M tris buffer (PPE) or a 0.1M tris buffer, Brij 0.01%, NaN3 0.02% (HLE) (pH 7.5 for compound 5d). The method of Hart and O'Brian was published in 1973 in Biochemistry, Vol. 12, pp. 2940-2945 and that of Kitz and Wilson in 1962 in J. Biol. Chem., Vol. 237, pp. 3245-3249. In this way the first order constant ki is determined for the formation of the deactivated enzyme and the dissociation constant Ki of the enzyme-inhibitor complex. The ki: Ki ratio is the apparent second order constant characterizing the deactivation.

The target in series [3] is T1, human leucocytic elastase (HLE) (Homo sapiens, UniProt P08246).
T1 sequence (P08246 30-267): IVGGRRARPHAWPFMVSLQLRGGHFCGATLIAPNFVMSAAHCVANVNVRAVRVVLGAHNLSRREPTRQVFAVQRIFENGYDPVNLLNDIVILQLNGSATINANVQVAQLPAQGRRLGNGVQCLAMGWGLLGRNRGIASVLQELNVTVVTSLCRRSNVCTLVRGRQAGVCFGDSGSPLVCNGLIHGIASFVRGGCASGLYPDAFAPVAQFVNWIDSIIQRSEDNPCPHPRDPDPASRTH
Put plainly: Deactivation of human leucocytic elastase (HLE), Kitz and Wilson kinetics. As to conditions: for kinact/KI / Ki / kinact: 37° C., Brij 0.01%, NaN3 0.02%, Kitz and Wilson; for Ki: read-out: Ki (dissociation constant of the enzyme-inhibitor complex), HLE; for kinact: read-out: ki (first order constant for the formation of the deactivated enzyme), HLE. The format is biochemical. As to the method:
as §1

The subject of a further series is chymotrypsin. Put plainly: Test as chymotrypsin inhibitors under identical conditions. The format is biochemical. The text has this: (§2) The properties of the N-aryl-azetidinones obtained in examples 4, 5, 6, 7, 11, 17, 22 and 23 are checked and in particular their deactivation capacity for porcine pancreatic elastase (PPE) and human leucocytic elastase (HLE) using the methods of Kitz and Wilson for HLE in the case of compounds 5a, 5c, 5d, 5e, 5a' and 10a, the method of Kitz and Wilson for PPE in the case of compounds 5a, 5c, 5e and 10a and the method of Hart and O'Brian for PPE in the case of compounds 5a and 5'a. All the kinetic measurements are carried out at 37° C. and at a pH of 8 with a 0.1M tris buffer (PPE) or a 0.1M tris buffer, Brij 0.01%, NaN3 0.02% (HLE) (pH 7.5 for compound 5d).
(§3) On testing compounds 5, 5c, 5'a'under identical conditions as chymotrypsin or trypsin inhibitors, it can be seen that they have no action on these enzymes.

A further series concerns trypsin. As to the kind of experiment: Test as trypsin inhibitors under identical conditions. The class given is biochemical.
Description: as §2, §3

Series [4] deals with elastase. Put plainly: Effect on the degradation of elastin by elastase. As to conditions: for deactivation of elastase previously incubated with elastin: elastase previously incubated for 30 min. in the presence of an elastin excess (2mg). The format is biochemical. As to the method:
The effect of compound 5on the degradation of elastin, the natural substrate of elastase in the human organism was tested.

Series [5] can be described thus: Acute toxicity in male and female mice. As to conditions: mouse, in vivo. Here is the method: The acute toxicity of compound 5a researched on male and female mice exceeds 200 mg/kg.
[6] abbreviates: pH 8, 0.1M tris buffer, read-out: ki/Ki (apparent second order constant characterizing the deactivation), HLE.

porcine pancreatic elastase (PPE), sequence (P00772 27-266): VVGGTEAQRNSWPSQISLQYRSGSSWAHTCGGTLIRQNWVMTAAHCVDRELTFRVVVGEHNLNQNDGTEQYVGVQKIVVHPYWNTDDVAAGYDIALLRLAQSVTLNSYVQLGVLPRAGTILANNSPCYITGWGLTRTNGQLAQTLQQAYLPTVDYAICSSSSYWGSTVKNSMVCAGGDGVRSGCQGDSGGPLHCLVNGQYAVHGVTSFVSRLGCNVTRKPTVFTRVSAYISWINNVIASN

Take `O=C1N(c2ccccc2CF)CC1(F)F` [Compound 5b, N-(2-fluoromethylphenyl)-3,3-difluoro-2-azetidinone]: in the series on elastase [1], the elastase inhibition entry is on record as “not inhibitors” and the elastase substrate result was “elastase substrates”.
As for `O=C1N(c2ccc(CCl)cc2)CC1(F)F` [Compound 10a, N-(4-chloromethylphenyl)-3,3-difluoro-2-azetidinone], in series [2], the “deactivation of PPE (in words)” value is “deactivate”, the Ki was determined as 660 µM, the kinact was 0.075 s⁻¹ and the kinact/KI is 113 M⁻¹ s⁻¹. Besides, the “deactivation of HLE (in words)” value in series [3] is given as “deactivate”. Moreover, in series [3] (setting [6]), the kinact/KI was ~1.2 M⁻¹ s⁻¹.
Take `O=C1N(c2ccccc2CCl)CC1(Cl)Cl` [Compound 5e, N-(2-chloromethylphenyl)-3,3-di-chloro-2-azetidinone]: in series [2], the Ki worked out at 590 µM, the kinact was determined as 0.028 s⁻¹ and the kinact/KI was determined as 47 M⁻¹ s⁻¹. Besides, in series [3] (pH 8, 0.1M tris buffer), the Ki was 500 µM and the kinact was determined as 0.03 s⁻¹. Further, the kinact/KI in series [3] (setting [6]) was found to be 60 M⁻¹ s⁻¹.
In the case of `O=C1N(c2ccccc2CCl)CC1(F)F` [Compound 5a, N-(2-chloromethylphenyl)-3,3-difluoro-2-azetidinone], in series [2], the “deactivation of PPE (in words)” value is given as “deactivate”, the Ki worked out at 30 µM, the kinact was 0.031 s⁻¹ and the kinact/KI turned out to be 1030 M⁻¹ s⁻¹. Also, in series [3], the “deactivation of HLE (in words)” value is given as “deactivate”. In series [3] (pH 8, 0.1M tris buffer), the Ki came out at 16.6 µM and the kinact came out at 0.005 s⁻¹. In addition, in series [3] (setting [6]), the kinact/KI came out at 301 M⁻¹ s⁻¹. The action on chymotrypsin entry in the series with chymotrypsin is recorded as “no action”. The action on trypsin result with trypsin was “no action”. Moreover, the “deactivation of elastase previously incubated with elastin” value (“deactivation … with elastin” below) in the series on elastase [4] is recorded as “remain capable of deactivating elastase”. The “capacity of treated elastase to degrade elastin” value in the series with elastase [4] (elastase previously treated by the compound) was “lost its capacity to degrade elastin”. Also, the LD50 in series [5] was > 200 mg/kg.
Consider `CS(=O)(=O)OCc1ccccc1N1CC(F)(F)C1=O` [Compound 5c, N-(2-methanesulphonyloxymethylphenyl)-3,3-difluoro-2-azetidinone], for which, in series [2], the “deactivation of PPE (in words)” value is “deactivate”, the Ki worked out at 48 µM, the kinact came to 0.017 s⁻¹ and the kinact/KI stood at 354 M⁻¹ s⁻¹. For the same compound, the “deactivation of HLE (in words)” value in series [3] is reported as “deactivate”. In series [3] (pH 8, 0.1M tris buffer), the Ki turned out to be 500 µM and the kinact came to 0.05 s⁻¹. In series [3] (setting [6]), the kinact/KI amounted to 100 M⁻¹ s⁻¹. Moreover, the action on chymotrypsin result in the series on chymotrypsin was “no action”. In addition, the action on trypsin entry in the series on trypsin is recorded as “no action”. Further, the “deactivation … with elastin” value in the series with elastase [4] is “remain capable of deactivating elastase”.
As for `O=C1N(c2ccc(CF)cc2)CC1(F)F` [Compound 10b, N-(4-fluoromethylphenyl)-3,3-difluoro-2-azetidinone], in the series with elastase [1], the elastase inhibition result is “not inhibitors” and the elastase substrate result was “elastase substrates”.
For the compound `O=C1N(c2ccccc2CCl)CC1(F)Br` (stereo not shown) [5'a, N-(2-chloromethylphenyl)-3-fluoro-3bromo-2-azetidinone], in series [2], the “deactivation of PPE (in words)” value is “deactivate”, the Ki stood at 8.5 µM, the kinact turned out to be 0.048 s⁻¹ and the kinact/KI came to 5650 M⁻¹ s⁻¹. In addition, the “deactivation of HLE (in words)” value in series [3] is recorded as “deactivate”. Besides, in series [3] (pH 8, 0.1M tris buffer), the Ki was 1170 µM and the kinact came out at 0.37 s⁻¹. The kinact/KI in series [3] (setting [6]) is 316 M⁻¹ s⁻¹. Further, the action on chymotrypsin entry in the series with chymotrypsin was “no action”. Further, the action on trypsin result in the series on trypsin is listed as “no action”. Also, the “deactivation … with elastin” value in the series with elastase [4] is “remain capable of deactivating elastase”.
Consider `O=C1N(c2ccccc2CBr)CC1(F)F` [Compound 5d, N-(2-bromomethylphenyl)-3,3-difluoro-2-azetidinone], for which, in series [3] (pH 7.5 for compound 5d, 0.1M tris buffer, read-out: ki/Ki (apparent second order constant characterizing the deactivation), HLE, pH 7.5), the kinact/KI was found to be 40 M⁻¹ s⁻¹.

The Ki is a measure of affinity in units of concentration, obtained from inhibition or displacement. In general, LD50 refers to the dose expected to kill half of the subjects tested. A high value points to lower toxicity.
